From paper PMC3816707, “Diamidines versus Monoamidines as Anti-Pneumocystis Agents: An in vivo Study” (Pharmaceuticals, 2013)
Where a name gives a salt, the structure may show the parent alone.

Tests used:
Pneumocystis carinii [1] = assay: In vivo anti-Pneumocystis activity, P. carinii pneumonia in nude rats; set-up: species or system athymic Lou nu/nu rats; settings: for % of inhibition versus control rats: once a day for 10 days, P. carinii count in lung homogenates; for In vivo anti-Pneumocystis activity: subcutaneous, 5 and 20 mg/kg/day, 10 days
Method: To evaluate the in vivo anti-Pneumocystis activity, drug stock solutions in DMSO (300 mg/mL) were diluted in phosphate buffered saline (PBS, BioWhittaker) to produce the required final drug concentrations just before subcutaneous injection. Seven weeks p.i., animals were divided into groups of 4, and then pentamidine and derivatives 4 and 6 were dosed at 5 or 20 mg/kg by subcutaneous route. The drugs were given once a day for 10 consecutive days. The final concentration of DMSO in diluted drug solutions was maintained between 1.5% and 6%. Control animals received doses of 6%-DMSO in sterile water. Twenty-four hours after the end of the treatment, animals were euthanatized and the lung homogenised in a Stomacher-400 blender as previously described. Quantitation of trophic forms, sporocytes, and cysts was performed on air-dried smears stained with RAL-555 stain [34, 37, 38]. Therapeutic efficacy was assessed by counting P. carinii parasites in lung homogenates and comparing them with those of the untreated controls at the end of the experiment. The results were expressed as percentage of inhibition versus drug-free animal controls and presented as mean and standard error. Data were analyzed using a two-way analysis of variance (PROC MIXED, SAS Institute, Cary, NC, USA), with sex, drug, and their interaction as independent predictors. Due to heterogeneity in parasites count distributions, the first step of the analysis was the selection of the within-subject covariance, based either on likelihood ratio tests or on the Bayesian Information Criterion. Then, tests of the fixed effects were performed. No interaction was found between sex and drug. Therapeutic efficacy was assessed with polynomial contrasts. Regression underlying assumptions were visually inspected with residual plots. Statistical significance was set at α = 0.05.
An in vivo experiment was performed in order to explore whether it reflected in vitro results. The used in vivo model was the athymic Pneumocystis-free Lou nu/nu rats non-surgically inoculated by endo-tracheal route with a suspension of P. carinii organisms. […] Rats developed high infection levels 6–8 weeks post inoculation without secondary fungal or bacterial infection. […] Thus animals were endotracheally infected after 2 weeks of dexamethasone administration (1 mg/L, drinking water) with 10^7 P. carinii organisms. Drugs were administered once a day by subcutaneous route for 10 consecutive days. Untreated animals developed extensive infections at the end of the treatment period. The number of total P. carinii organisms per lung in DMSO control rats was 1.26 ± 0.20 × 10^10. […] On the other hand, whereas showing a strong anti-Pneumocystis activity in vitro, the monoamidine 7 appeared to be poorly potent when administered subcutaneously to Pneumocystis-infected rats, even at the dose of 20 mg/kg/day.

Pneumocystis carinii [2] = assay: In vitro anti-Pneumocystis activity, P. carinii axenic short culture (4 days); type: cell-based; settings: for inhibition of growth at 50 µg/mL / inhibition of growth at 0.1 µg/mL / inhibition of growth at 10 µg/mL / EC50: Pneumocystis carinii, 96 h; for inhibition of growth at 50 µg/mL / Anti-Pneumocystis activity % inhibition vs. free-drug control at 0.1 µg/mL / Anti-Pneumocystis activity % inhibition vs. free-drug control at 10 µg/mL / Anti-Pneumocystis activity % inhibition vs. free-drug control at 50 µg/mL: 4 days axenic culture; for inhibition of growth at 50 µg/mL: read-out: Anti-Pneumocystis activity % inhibition vs. free-drug control at 50 µg/mL; for inhibition of growth at 0.1 µg/mL: read-out: Anti-Pneumocystis activity % inhibition vs. free-drug control at 0.1 µg/mL, 0.1 µg/mL, 4 days axenic culture; for inhibition of growth at 10 µg/mL: read-out: Anti-Pneumocystis activity % inhibition vs. free-drug control at 10 µg/mL, 10 µg/mL, 4 days axenic culture; for EC50: 150 to 1.35 10^-5 µM, read-out: EC50 against P. carinii
Method: Drug stock solutions in DMSO (10 mg/mL) were diluted in Dulbecco's Modified Eagle's Medium (DMEM, BioWhittaker) supplemented with 10% heat-inactivated foetal calf serum (FCS, Gibco-BRL) to produce the required drug concentrations. P. carinii axenic short cultures were performed as follows. All the experiments were carried out in 24-well plates with a final volume of 2 mL of DMEM supplemented with 10% of heat-inactivated fetal calf serum (FCS) containing a final inoculum of 10^6 organisms per mL. Plates were incubated for 4 days in an atmosphere of 5% CO2 at 37 °C. Then, P. carinii organisms were collected and quantified after RAL-555 panoptic staining. In parallel with these free-drug growth control wells, the anti-Pneumocystis effect of pentamidine and the other bisbenzamidines considered in this study was investigated in the same conditions. All molecules have been screened at a high (50 µg/mL), a medium (10 µg/mL), and a low (0.1 µg/mL) concentration. All experiments were performed in triplicate and data were statistically processed using Student’s t-test. Two-sided p-values < 0.05 were deemed to be statistically significant.
The parameters of this pharmacodynamic model were calculated by nonlinear least-squares regression techniques using commercial software (Sigma Plot, Systat Software Inc., San Jose, CA, USA).

[3] = In vitro cytotoxicity, MTT-based cell viability assay; set-up: species or system murine; settings: mouse, 3T6 embryonal fibroblast cells (adherent); 3T6 murine embryonal fibroblast cell line, MTT, triplicate, mean
Method: (§1) In vitro cytotoxicity assays with established cell lines are useful tools for the general screening of chemicals in toxicological studies. […] The procedure, according to the manufacturer recommendations, was based on the colorimetric determination of the succinate dehydrogenase activity by visualization (540 nm) of the conversion of a tetrazolium salt into formazan. With a microplate reader (Thermo Labsystems Multiskan Ascent 354, Waltham, MA, USA), the optical density of each well was measured at 540 nm against the background absorbance whose reference filter was set at 690 nm. Blank controls (culture medium), free-drug controls, and solvent (DMSO) controls were included in each assay. All cytotoxicity assays were set up in triplicate. […] The IC50 parameters were obtained by plotting % inhibition values against the logarithm of concentration for each compound.
(§2) For each compound, the % inhibition of activity against the concentration scale was plotted. The 50% inhibiting concentrations of cell proliferation (IC50) were calculated by locating the x-axis values corresponding to one-half of the absorbance values. The experiments were repeated in triplicate for each substance.

[4] = Visual observations of treated rats (behavior, injection site); type: in vivo, rat; settings: for Cutaneous reaction at the site of injections: subcutaneous treatment, data not shown
3T6 fibroblast cell line = assay: In vitro cytotoxicity, MTT-based cell viability assay; set-up: species or system murine; settings: for Cytotoxicity: 3T6 cell line; for IC50 fold higher than for the reference compound (pentamidine): 3T6 cytotoxicity
Method: as §1, §2

[5] = set-up: method as in PMID 21147326; settings: in comparison with pentamidine and the diamidine 6; cited from earlier work
[6] = Hill equation, 4 days of culture

| melting point [°C] | EC50 (Pneumocystis carinii [2]; [6]) [µM] | Compound | % of inhibition versus control rats (Pneumocystis carinii [1]; 5 mg/kg/day subcutaneous) [%] | % of inhibition versus control rats (Pneumocystis carinii [1]; 20 mg/kg/day subcutaneous) [%] | Slope S (steepness of the concentration-effect curve) (Pneumocystis carinii [2]; [6]) | inhibition of growth at 50 µg/mL (Pneumocystis carinii [2]) [%] | inhibition of growth at 0.1 µg/mL (Pneumocystis carinii [2]) [%] | inhibition of growth at 10 µg/mL (Pneumocystis carinii [2]) [%] | IC50 [3] [µM] | Anti-Pneumocystis activity % inhibition vs. free-drug control at 0.1 µg/mL (Pneumocystis carinii [2]) | Cytotoxicity (3T6 fibroblast cell line) | further results |
| --- | --- | --- | --- | --- | --- | --- | --- | --- | --- | --- | --- | --- |
| 212 to 215 | – | CN(CCNc1ccccc1)c1ccc(C(=N)N)cc1 (as salt: hydrochloride) [Compound 9, N-(Benzamidine-4-yl)-N-methyl-N′-phenylethane-1,2-diamine hydrochloride salt] | – | – | – | – | – | – | – | – | – | – |
| 191 to 193 | – | N=C(N)c1ccc(NCCNc2ccccc2)cc1 (as salt: sulfate) [Compound 7, N-(Benzamidine-4-yl)-N′-phenylethane-1,2-diamine sulfate salt] | – | – | – | – | – | – | – | – | – | – |
| – | 0.08 ± 0.01 | N=C(N)c1ccc(OCCCCCOc2ccc(C(=N)N)cc2)cc1 [Compound 1, pentamidine, reference compound] | 84.6 | 95.3 | 1.09 ± 0.23 | 99 ± 0.1 | 89 | 99 ± 0.1 | 1.98 ± 0.2 | – | – | Cutaneous reaction at the site of injections [4]: deleterious wounds could be seen on the skin |
| 146 to 149 | – | Nc1ccc(N2CCN(c3ccccc3)CC2)cc1 [Compound 5, 1-(4-Aminophenyl)-4-phenylpiperazine] | – | – | – | – | – | – | 10.2 ± 0.6 | inactive | – | Anti-Pneumocystis activity % inhibition vs. free-drug control at 10 µg/mL (Pneumocystis carinii [2]): inactive; Anti-Pneumocystis activity % inhibition vs. free-drug control at 50 µg/mL (Pneumocystis carinii [2]): inactive |
| – | 0.6 ± 0.12 | N=C(N)c1ccc(NCCNc2ccc(C(=N)N)cc2)cc1 [Compound 6, N,N′-bis(benzamidine-4-yl)ethane-1,2-diamine] | 78.4 | 86.2 | 1.49 ± 0.31 | 98.7 ± 0.6 | 29.8 ± 19.7 | 97.7 ± 0.6 | 30.2 ± 1.14 | – | no cytotoxicity | In vivo anti-Pneumocystis activity (Pneumocystis carinii [1]): strong anti-Pneumocystis activity comparable to that of pentamidine at both doses; IC50 fold higher than for the reference compound (pentamidine) (3T6 fibroblast cell line): 15 fold; Cutaneous reaction at the site of injections [4]: did not develop any cutaneous reaction; Behavior during the treatment ([4]; visual observations): quite normal behavior |
| – | 0.4 ± 0.08 | N=C(N)c1ccc(NCCNc2ccccc2)cc1 [Compound 7, N-(Benzamidine-4-yl)-N′-phenylethane-1,2-diamine sulfate salt] | 43.1 | 54.3 | 2.00 ± 0.54 | 99.5 ± 0.4 | 42 ± 12.5 | 98.7 ± 0.6 | 40.6 ± 1.3 | – | no cytotoxicity | In vivo anti-Pneumocystis activity (Pneumocystis carinii [1]): poorly potent; Emax (Pneumocystis carinii [2]; Hill equation, maximum effect, 4 days of culture): 99.37 ± 2.54%; IC50 fold higher than for the reference compound (pentamidine) (3T6 fibroblast cell line): 20 fold; Elimination from plasma [5]: more rapidly eliminated from plasma |

The next lines start with the compound.

| Compound | melting point [°C] | EC50 (Pneumocystis carinii [2]; [6]) [µM] | % of inhibition versus control rats (Pneumocystis carinii [1]; 5 mg/kg/day subcutaneous) [%] | % of inhibition versus control rats (Pneumocystis carinii [1]; 20 mg/kg/day subcutaneous) [%] | Slope S (steepness of the concentration-effect curve) (Pneumocystis carinii [2]; [6]) | inhibition of growth at 50 µg/mL (Pneumocystis carinii [2]) [%] | inhibition of growth at 0.1 µg/mL (Pneumocystis carinii [2]) [%] | inhibition of growth at 10 µg/mL (Pneumocystis carinii [2]) [%] | IC50 [3] [µM] | Anti-Pneumocystis activity % inhibition vs. free-drug control at 0.1 µg/mL (Pneumocystis carinii [2]) | Cytotoxicity (3T6 fibroblast cell line) | further results |
| --- | --- | --- | --- | --- | --- | --- | --- | --- | --- | --- | --- | --- |
| N=C(N)c1ccc(N2CCN(c3ccccc3)CC2)cc1 [Compound 3] | – | – | – | – | – | 99 ± 0.1 | 8.3 ± 14.4 | 99 ± 0.1 | 56.06 ± 0.39 | – | – | – |
| Nc1ccc(N2CCN(c3ccc(N)cc3)CC2)cc1 [Compound 4] | – | – | – | – | – | – | – | – | 40.8 ± 4.4 | inactive | – | Anti-Pneumocystis activity % inhibition vs. free-drug control at 10 µg/mL (Pneumocystis carinii [2]): inactive; Anti-Pneumocystis activity % inhibition vs. free-drug control at 50 µg/mL (Pneumocystis carinii [2]): inactive |
| CN(CCNc1ccc(C(=N)N)cc1)c1ccc(C(=N)N)cc1 [Compound 8] | – | – | – | – | – | 99 | 15 ± 12.5 | 99 | 2.48 ± 0.35 | – | cytotoxicity similar to that of pentamidine | – |
| CN(CCNc1ccccc1)c1ccc(C(=N)N)cc1 [Compound 9, N-(Benzamidine-4-yl)-N-methyl-N′-phenylethane-1,2-diamine hydrochloride salt] | – | – | – | – | – | 88.7 ± 2.5 | – | 86.3 ± 4 | 3.11 ± 0.09 | inactive | cytotoxicity similar to that of pentamidine | – |
